US20230144211A1, “ANTIFOLATE LINKER-DRUGS AND ANTIBODY-DRUG CONJUGATES” (Byondis B.V., priority 2020, published 2023)

Key:
[1] = system: A-549 cells; test: In vitro cell viability assay (CellTiter-Glo, 6 days); type: cell-based; settings: Homo sapiens, A549; free antifolate drugs, Table 1a; $ steep hillslope
Method: (§1) Human tumor cell lines SK-BR-3, SW-620, A-549, BT-474, Jurkat Clone E6-1, AU-565, and SK-OV-3 were obtained from American Type Culture Collection (Rockville, Md., USA). FaDu, BxPC-3, HeLa, MV4-11, and RAJI cell lines were obtained from Deutsche Sammlung von Mikroorganismen und Zellkulturen (Leipzig, Germany). Jurkat NucLight Red cells were obtained from Essen BioScience Inc. (Ann Arbor, Mich., USA). SK-BR-3 and SK-OV-3 cells were cultured in McCoys 5A medium (Lonza; Walkersville, Md., USA) supplemented with 10% v/w Fetal Bovine Serum (FBS), Heat-inactivated (HI) (Gibco-Life Technologies; Carlsbad, Calif.) and 80 U/mL Pen/Strep (Gibco-Life Technologies), at 37° C. in a humidified incubator under 5% CO2 atmosphere. SW-620 cells were similarly maintained in RPMI 1640 medium (Lonza), containing 10% v/w FBS HI and 80 U/mL Pen/Strep. A-549 cells were similarly maintained in F-12K Nutrient Mixture (1×) (Gibco-Life Technologies) media supplemented with 80 U/mL Pen/Strep and 5% v/w FBS, which was Qualified (Q) (Gibco-Life Technologies). BT-474 and AU-565 cells were similarly maintained in RPMI 1640 medium (Lonza), containing 10% v/w FBS, which was Qualified (Q) (Gibco-Life Technologies), and 80 U/mL Pen/Strep. Jurkat Clone E6-1, BxPC-3, HeLa, MV4-11, and RAJI cells were similarly maintained in RPMI 1640 medium (Lonza), containing 10% v/w FBS HI and 80 U/mL Pen/Strep. Jurkat NucLight Red cells were similarly maintained in RPMI 1640 medium (Lonza), containing 10% v/w FBS HI, 80 U/mL Pen/Strep and 0.5 μg/mL Puromycin (Gibco-Life Technologies). FaDu cells were cultured in EMEM medium (Lonza) supplemented with 10% v/w FBS HI (Gibco-Life Technologies), 1× GlutaMAX (Gibco-Life Technologies), and 80 U/mL Pen/Strep (Gibco-Life Technologies), at 37° C. in a humidified incubator under 5% CO2 atmosphere.
(§2) Cells in complete growth medium were plated in 96-well plates (90 μL/well) and incubated at 37° C., 5% CO2 at the following cell densities: 6500 SK-BR-3, 4000 SW-620, 2500 A-549, 10000 BT-474, 3000 Jurkat Clone E6-1, 5000 AU-565, 1250 FaDu, 1250 BxPC-3, 1000 HeLa, 7500 MV4-11, 1000 RAJI, 3000 Jurkat NucLight Red, and 4000 SK-OV-3 cells per well. After an overnight incubation, 10 serial log 10 dilutions of the free drugs were made in DMSO (Sigma-Aldrich). These free drug dose-response curves were 10-times further diluted in complete growth medium. For the ADCs according to the invention 10 serial log 10 dilutions were made in complete growth medium. 10 μL of a composition comprising a free drug or an ADC according to the invention was added to the assay plate (final DMSO content for free drugs was 1%). […] Cell viability was assessed after 6 days using a luminescent assay kit (CellTiter-Glo™ (CTG), Promega Corporation) according to the manufacturer's instructions. Percentage cell survival was calculated by dividing the measured luminescence for each free drug or ADC according to the concentration with the average mean of untreated cells (1% or 0.1% DMSO control (for free drugs) or 100% complete growth medium (for ADCs)) multiplied by 100.
(§3) Curves were fitted by non-linear regression using the sigmoidal dose-response equation with variable slope (four parameters) using curve-fitting software (GraphPad Prism, version 9.4.0 for Windows, GraphPad, San Diego, Calif. or Electronic Laboratory Notebook (ELN) add-in BioAssay, version 19.1.0.0218, Perkin Elmer, Waltham, Mass.). Relative IC50 values were calculated as the concentration that gives a response halfway between bottom and top of the curve, when using a 4-parameter logistic fit. Data were reported as mean IC50 value of at least one experiment performed in duplicate.

[2] = system: SK-BR-3 cells; test: as above; type: cell-based, human
Method: as §1, with “FaDu,” for “Human tumor cell lines SK-BR-3, SW-620, A-549, BT-474, Jurkat Clone E6-1, AU-565, and SK-OV-3 were obtained from American Type Culture Collection (Rockville, Md., USA). FaDu,”, “Jurkat Clone E6-1, BxPC-3, HeLa, MV4-11, and RAJI cells were similarly maintained in RPMI 1640 medium (Lonza), containing 10% v/w FBS HI and 80 U/mL Pen/Strep.” left out
(§4) After an overnight incubation, 10 serial log 10 dilutions of the free drugs were made in DMSO (Sigma-Aldrich). These free drug dose-response curves were 10-times further diluted in complete growth medium. For the ADCs according to the invention 10 serial log 10 dilutions were made in complete growth medium. 10 μL of a composition comprising a free drug or an ADC according to the invention was added to the assay plate (final DMSO content for free drugs was 1%). […] […] Percentage cell survival was calculated by dividing the measured luminescence for each free drug or ADC according to the concentration with the average mean of untreated cells (1% or 0.1% DMSO control (for free drugs) or 100% complete growth medium (for ADCs)) multiplied by 100.
as §3

[3] = system: SW-620 cells; test: as above; type: cell-based; settings: Homo sapiens, free antifolate drugs, Table 1a
Method: as §1, with “FaDu,” for “Human tumor cell lines SK-BR-3, SW-620, A-549, BT-474, Jurkat Clone E6-1, AU-565, and SK-OV-3 were obtained from American Type Culture Collection (Rockville, Md., USA). FaDu,”, “Jurkat Clone E6-1, BxPC-3, HeLa, MV4-11, and RAJI cells were similarly maintained in RPMI 1640 medium (Lonza), containing 10% v/w FBS HI and 80 U/mL Pen/Strep.” left out
(§5) After an overnight incubation, 10 serial log 10 dilutions of the free drugs were made in DMSO (Sigma-Aldrich). These free drug dose-response curves were 10-times further diluted in complete growth medium. For the ADCs according to the invention 10 serial log 10 dilutions were made in complete growth medium. 10 μL of a composition comprising a free drug or an ADC according to the invention was added to the assay plate (final DMSO content for free drugs was 1%). […] Cell viability was assessed after 6 days using a luminescent assay kit (CellTiter-Glo™ (CTG), Promega Corporation) according to the manufacturer's instructions. Percentage cell survival was calculated by dividing the measured luminescence for each free drug or ADC according to the concentration with the average mean of untreated cells (1% or 0.1% DMSO control (for free drugs) or 100% complete growth medium (for ADCs)) multiplied by 100.
as §3

[4] = system: AU-565 cells; test: as above; type: cell-based, human
Method: as §1, with “FaDu,” for “Human tumor cell lines SK-BR-3, SW-620, A-549, BT-474, Jurkat Clone E6-1, AU-565, and SK-OV-3 were obtained from American Type Culture Collection (Rockville, Md., USA). FaDu,”, “Jurkat Clone E6-1, BxPC-3, HeLa, MV4-11, and RAJI cells were similarly maintained in RPMI 1640 medium (Lonza), containing 10% v/w FBS HI and 80 U/mL Pen/Strep.” left out
as §4, §3

[5] = system: Human tumor cell lines; test: In vitro cell viability assays, free antifolate drugs, overall comparison; type: cell-based; settings: compared with talotrexin or parent compound
Method: as §1, §2, §3

[6] = system: Jurkat NucLight Red cells; test: In vitro cell viability assay (CellTiter-Glo, 6 days); type: cell-based, human; settings: free antifolate drugs
Method: as §1, with “FaDu,” for “Human tumor cell lines SK-BR-3, SW-620, A-549, BT-474, Jurkat Clone E6-1, AU-565, and SK-OV-3 were obtained from American Type Culture Collection (Rockville, Md., USA). FaDu,”, “Jurkat Clone E6-1, BxPC-3, HeLa, MV4-11, and RAJI cells were similarly maintained in RPMI 1640 medium (Lonza), containing 10% v/w FBS HI and 80 U/mL Pen/Strep.” left out
as §5, §3

[7] = Homo sapiens, SK-BR-3, free antifolate drugs, Table 1a
[8] = Homo sapiens, AU565, free antifolate drugs, Table 1a
[9] = free antifolate drugs, Table 1c

IC50 [1]	IC50 [2, 7]	IC50 [3]	SMILES	also measured
2.3 nM	1 nM	1.1 nM	Nc1ccc(C(=O)NCCC[C@H](NC(=O)c2ccc(CCc3cnc4nc(N)nc(N)c4n3)cc2)C(=O)O)c(C(=O)O)c1 [XT25, (S)-5-amino-2-((4-carboxy-4-(4-(2-(2,4-diaminopteridin-6-yl)ethyl)benzamido)butyl)-carbamoyl)benzoic acid]	–
~8.7 nM	1.6 nM	–	Nc1nc(N)c2nc(CNc3ccc(C(=O)N[C@@H](CCCNC(=O)c4ccc(O)cc4)C(=O)O)cc3)cnc2n1 [XS14, (S)-2-(4-(((2,4-diaminopteridin-6-yl)methyl)amino)benzamido)-5-(4-hydroxybenzamido)pentanoic acid]	IC50 [4, 8]: 1.9 nM
2 nM	1.9 nM	2.1 nM	Nc1ccc(C(=O)NCCC[C@H](NC(=O)c2ccc(NCc3cnc4nc(N)nc(N)c4n3)cc2)C(=O)O)c(C(=O)O)c1 [XT10, (S)-5-amino-2-((4-carboxy-4-(4-(((2,4-diaminopteridin-6-yl)methyl)-amino)benzamido)butyl)carbamoyl)benzoic acid]	–
~2.5 nM	2.2 nM	–	Nc1ccc(-c2cn(CCC[C@H](NC(=O)c3ccc(NCc4cnc5nc(N)nc(N)c5n4)cc3)C(=O)O)nn2)c(C(=O)O)c1 [XR22, (S)-5-Amino-2-(1-(4-carboxy-4-(4-(((2,4-diaminopteridin-6-yl)methyl)amino)benzamido)butyl)-1H-1,2,3-triazol-4-yl)benzoic acid]	IC50 [4, 8]: 0.9 nM
–	–	–	Nc1ccc(C(=O)NCCC[C@H](NC(=O)c2ccc(NCc3ccc4nc(N)nc(N)c4c3Cl)cc2)C(=O)O)c(-c2nnn[nH]2)c1 [XT110, (S)-5-(4-Amino-2-(1H-tetrazol-5-yl)benzamido)-2-(4-(((2,4-diamino-5-chloroquinazolin-6-yl)methyl)amino)benzamido)pentanoic acid]	antifolate activity, comparison in words [5]: strongly increased the antifolate activity; IC50 ([2]; Homo sapiens, SK-BR-3, free antifolate drugs, Table 1b, # no full dose-response curve): 0.41 nM; IC50 ([2]; Homo sapiens, SK-BR-3, free antifolate drugs, Table 1c): 0.54 nM; IC50 ([4]; Homo sapiens, AU565, free antifolate drugs, Table 1b): 0.36 nM; IC50 ([4]; Homo sapiens, AU565, free antifolate drugs, Table 1c): 0.44 nM; IC50 ([6]; Homo sapiens, Jurkat, Table 1b): 0.75 nM; IC50 ([6]; Homo sapiens, Jurkat, Table 1c): 0.92 nM
1.97 nM	0.92 nM	1.41 nM	Cc1c(CNc2ccc(C(=O)N[C@@H](CCCNC(=O)c3ccccc3C(=O)O)C(=O)O)cc2)ccc2nc(N)nc(N)c12 [Comparative compound 1, reference compound]	–
20 nM	17 nM	10 nM	Nc1ccc(C(=O)O)c(C(=O)NCCC[C@H](NC(=O)c2ccc(NCc3cnc4nc(N)nc(N)c4n3)cc2)C(=O)O)c1 [XT9, (S)-4-Amino-2-((4-carboxy-4-(4-(((2,4-diaminopteridin-6-yl)methyl)amino)benzamido)butyl)carbamoyl)-benzoic acid]	–
27 nM	18 nM	7.5 nM	Nc1ccc(C(=O)O)c(C(=O)NCCC[C@H](NC(=O)c2ccc(CCc3cnc4nc(N)nc(N)c4n3)cc2)C(=O)O)c1 [XT24, (S)-4-Amino-2-((4-carboxy-4-(4-(2-(2,4-diaminopteridin-6-yl)ethyl)benzamido)butyl)carbamoyl) benzoic acid]	–
19 nM	25 nM	12 nM	CN(Cc1cnc2nc(N)nc(N)c2n1)c1ccc(C(=O)N[C@@H](CCCNC(=O)c2cc(N)ccc2C(=O)O)C(=O)O)cc1 [XT20, (S)-4-Amino-2-((4-carboxy-4-(4-(((2,4-diaminopteridin-6-yl)methyl)(methyl)amino)benzamido)butyl)-carbamoyl)benzoic acid]	–
2.3 nM	2.1 nM	2.9 nM	CN(Cc1cnc2nc(N)nc(N)c2n1)c1ccc(C(=O)N[C@@H](CCCNC(=O)c2ccc(N)cc2C(=O)O)C(=O)O)cc1 [XT21, (S)-5-amino-2-((4-carboxy-4-(4-(((2,4-diaminopteridin-6-yl)methyl)(methyl)amino)benzamido)butyl)carbamoyl)benzoic acid]	–
–	–	–	CN(Cc1cnc2nc(N)nc(N)c2n1)c1ccc(C(=O)N[C@@H](CCCNC(=O)c2ccc(N)cc2-c2nn[nH]n2)C(=O)O)s1 [XC9, (S)-5-(4-Amino-2-(2H-tetrazol-5-yl)benzamido)-2-(5-(((2,4-diaminopteridin-6-yl)methyl)(methyl)amino)thiophene-2-carboxamido)pentanoic acid]	IC50 [2, 9]: 3.77 nM; IC50 [4, 9]: 1.95 nM; IC50 ([6]; Table 1c): 2.41 nM

SMILES	IC50 [1]	IC50 [2, 7]	IC50 [3]	also measured
Nc1nc(N)c2nc(CNc3ccc(C(=O)N[C@@H](CCCNC(=O)c4ccccc4C(=O)O)C(=O)O)cc3)cnc2n1 [Talotrexin, reference compound]	1.7 nM	1.83 nM	1.74 nM	–
